Results from patent publication US11938190B2, “Herbal extracts for treatment of herpesvirus infections” (KAMEDIS LTD., priority 2018, dated 2024).
Converted amounts (≈) assume the structure as drawn.

System: Herpes Simplex Virus type 1 (HSV-1)
Test: microbe, parasite or virus in culture
Assay type: cell-based
Settings: Human alphaherpesvirus 1; Example 2; acyclovir dose-response curve; EYFP-HSV-1, Vero cells

SMILES: Nc1nc2c(ncn2COCCO)c(=O)[nH]1 [Acyclovir]
- IC50: 0.126 ± 0.014 µg/mL (≈ 0.559 µM)
